Laboratory results taken from US20020137929A1, “1 - (3-heterocyclylphenyl) isothiourea, -isourea, -guanidine and -amidine herbicidal agents” (Intellectual Property Department, BASF Aktiengesellschaft, priority 1998, published 2002).

Assays:
[1] = test system: SETVI (Foxtail, Green); experiment: Postemergence herbicidal evaluation; format: in vivo, Setaria viridis
In short: (§1)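 Two-week seedlings sprayed postemergence at 40 psi; formulation: 1:1 acetone/water, 0.5% TWEEN 20; application ≈0.0156–0.500 kg/ha. Greenhouse grow-out, then 0–9 visual scoring at 4–5 weeks.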

[2] = test system: ORYSAT (Rice, Tebonnet); experiment: Postemergence herbicidal evaluation; format: in vivo, Oryza sativa, (L.) Tebonnet
In short: as §1

[3] = test system: ZEAMX (Corn, Field); experiment: Postemergence herbicidal evaluation; format: in vivo, Zea mays
In short: as §1

[4] = test system: ECHCG (Barnyardgrass); experiment: Preemergence herbicidal evaluation; format: in vivo, Echinochloa crus-galli; settings: rated 4-5 weeks after treatment
In short: (§2)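 Each species is sown separately in potting soil over roughly an inch of soil before any emergence. The soil surface then receives an aqueous acetone spray delivering about 0.0156 to 0.500 kg/ha of compound. After four to five weeks, injury is scored from 0 to 9 relative to a control.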

[5] = test system: SETVI (Foxtail, Green); experiment: Preemergence herbicidal evaluation; format: in vivo, Setaria viridis; settings: rated 4-5 weeks after treatment
In short: as §2

[6] = test system: TRZAWR (Wheat, Winter, cv Riband); experiment: Preemergence herbicidal evaluation; format: in vivo, Triticum aestivum; settings: rated 4-5 weeks after treatment
In short: as §2

[7] = test system: ZEAMX (Corn, Field); experiment: Preemergence herbicidal evaluation; format: in vivo, Zea mays; settings: rated 4-5 weeks after treatment
In short: as §2

[8] = test system: ECHORC (Watergrass (Calif.)); experiment: Preemergence weed control under flooded paddy conditions; format: in vivo, Echinochloa oryzoides; settings: rated 3-4 weeks after treatment
In short: (§3)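 Ratings on a 0-9 visual scale cover stand, vigor, malformation, size, chlorosis and overall appearance relative to a control, taken three to four weeks post-treatment. Application was into flood water over freshly sown silt loam at roughly 0.0313 to 0.500 kg/ha.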

[9] = test system: CYPIR (Rice Flatsedge); experiment: as above; format: in vivo, Cyperus iria; settings: rated 3-4 weeks after treatment
In short: as §3

[10] = test system: CYPSE (Flatsedge); experiment: as above; format: in vivo, Cyperus serotinus; settings: rated 3-4 weeks after treatment
In short: as §3

[11] = test system: ECHORC (Watergrass (Calif.)); experiment: Postemergence weed control under flooded paddy conditions; format: in vivo, Echinochloa oryzoides; settings: postemergence weeds, 3-4 weeks after treatment
In short: (§4)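 Herbicidal effect is judged by eye on a 0–9 scale versus control, 3–4 weeks after dosing. Dosing is into flood water kept 1.5–3 cm over the soil, at about 0.0313–0.500 kg/ha in aqueous/acetone 50/50 v/v, on 3–5 cm weeds and 1.5–2.5-leaf rice seedlings.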

[12] = test system: CYPIR (Rice Flatsedge); experiment: as above; format: in vivo, Cyperus iria; settings: postemergence weeds, 3-4 weeks after treatment
In short: as §4

[13] = test system: CYPSE (Flatsedge); experiment: as above; format: in vivo, Cyperus serotinus; settings: postemergence weeds, 3-4 weeks after treatment
In short: as §4

[14] = test system: SAGPY (Arrowhead (Pygmaea)); experiment: as above; format: in vivo, Sagittaria pygmaea; settings: postemergence weeds, 3-4 weeks after treatment
In short: as §4

With `CCOC(=O)CN1C(=O)C(CC(=O)OCc2ccccc2)OC1=Nc1cc(-n2c(=O)cc(C(F)(F)F)n(C)c2=O)c(F)cc1Cl` (centres unmarked) [Compound 40, 2-{{2-Chloro-5-[3,6-dihydro-3-methyl-2,6-dioxo-4-(trifluoromethyl)-1(2H)-pyrimidinyl]-4-fluorophenyl}imino}-4-oxo-3,5-oxazolidinediacetic acid, 5-benzyl ethyl ester] the “Postemergence herbicidal rating SETVI” value ([1]; Rate 0.0158 kg/ha) was 1.0, the “Postemergence herbicidal rating SETVI” value ([1]; Rate 0.0315 kg/ha) was 7.0 and the “Postemergence herbicidal rating SETVI” value ([1]; Rate 0.0630 kg/ha) was 9.0. For the same compound, the “Postemergence herbicidal rating ORYSAT” value ([2]; Rate 0.0158 kg/ha) was 2.5, the “Postemergence herbicidal rating ORYSAT” value ([2]; Rate 0.0315 kg/ha) was 3.0 and the “Postemergence herbicidal rating ORYSAT” value ([2]; Rate 0.0630 kg/ha) was 3.0. For the same compound, the “Postemergence herbicidal rating ZEAMX” value ([3]; Rate 0.0158 kg/ha) was 7.0, the “Postemergence herbicidal rating ZEAMX” value ([3]; Rate 0.0315 kg/ha) was 7.5 and the “Postemergence herbicidal rating ZEAMX” value ([3]; Rate 0.0630 kg/ha) was 8.5. For the same compound, the “Preemergence herbicidal rating ECHCG” value ([4]; rate 0.0313 kg/ha) was 0.0, the “Preemergence herbicidal rating ECHCG” value ([4]; rate 0.0625 kg/ha) was 0.0 and the “Preemergence herbicidal rating ECHCG” value ([4]; rate 0.1250 kg/ha) was 1.0. The “Preemergence herbicidal rating ECHCG” value ([4]; rate 0.2500 kg/ha) was 1.0, the “Preemergence herbicidal rating SETVI” value ([5]; rate 0.0313 kg/ha) was 0.0 and the “Preemergence herbicidal rating SETVI” value ([5]; rate 0.0625 kg/ha) was 0.0. For the same compound, the “Preemergence herbicidal rating SETVI” value ([5]; rate 0.1250 kg/ha) was 6.0, the “Preemergence herbicidal rating SETVI” value ([5]; rate 0.2500 kg/ha) was 6.0 and the “Preemergence herbicidal rating TRZAWR” value ([6]; rate 0.0313 kg/ha) was 0.0. The “Preemergence herbicidal rating TRZAWR” value ([6]; rate 0.0625 kg/ha) was 0.0, the “Preemergence herbicidal rating TRZAWR” value ([6]; rate 0.1250 kg/ha) was 0.0 and the “Preemergence herbicidal rating TRZAWR” value ([6]; rate 0.2500 kg/ha) was 1.0. For the same compound, the “Preemergence herbicidal rating ZEAMX” value ([7]; rate 0.0313 kg/ha) was 0.0, the “Preemergence herbicidal rating ZEAMX” value ([7]; rate 0.0625 kg/ha) was 0.0 and the “Preemergence herbicidal rating ZEAMX” value ([7]; rate 0.1250 kg/ha) was 0.0. For the same compound, the “Preemergence herbicidal rating ZEAMX” value ([7]; rate 0.2500 kg/ha) was 1.0, the “Herbicidal rating ECHORC” value ([8]; 0.0313 kg/ha) was 5.0 and the “Herbicidal rating ECHORC” value ([8]; 0.0625 kg/ha) was 5.0. For the same compound, the “Herbicidal rating ECHORC” value ([8]; 0.1250 kg/ha) was 5.0, the “Herbicidal rating ECHORC” value ([8]; 0.2500 kg/ha) was 9.0 and the “Herbicidal rating CYPIR” value ([9]; 0.0313 kg/ha) was 0.0. For the same compound, the “Herbicidal rating CYPIR” value ([9]; 0.0625 kg/ha) was 0.0, the “Herbicidal rating CYPIR” value ([9]; 0.1250 kg/ha) was 0.0 and the “Herbicidal rating CYPIR” value ([9]; 0.2500 kg/ha) was 0.0. For the same compound, the “Herbicidal rating CYPSE” value ([10]; 0.0313 kg/ha) was 0.0, the “Herbicidal rating CYPSE” value ([10]; 0.0625 kg/ha) was 0.0 and the “Herbicidal rating CYPSE” value ([10]; 0.1250 kg/ha) was 0.0. For the same compound, the “Herbicidal rating CYPSE” value ([10]; 0.2500 kg/ha) was 6.0, the “Herbicidal rating ECHORC” value ([11]; rate 0.0313 kg/ha) was 5.0 and the “Herbicidal rating ECHORC” value ([11]; rate 0.0625 kg/ha) was 5.0. For the same compound, the “Herbicidal rating ECHORC” value ([11]; rate 0.1250 kg/ha) was 5.0, the “Herbicidal rating ECHORC” value ([11]; rate 0.2500 kg/ha) was 9.0 and the “Herbicidal rating CYPIR” value ([12]; rate 0.0313 kg/ha) was 0.0. For the same compound, the “Herbicidal rating CYPIR” value ([12]; rate 0.0625 kg/ha) was 0.0, the “Herbicidal rating CYPIR” value ([12]; rate 0.1250 kg/ha) was 0.0 and the “Herbicidal rating CYPIR” value ([12]; rate 0.2500 kg/ha) was 0.0. For the same compound, the “Herbicidal rating CYPSE” value ([13]; rate 0.0313 kg/ha) was 0.0, the “Herbicidal rating CYPSE” value ([13]; rate 0.0625 kg/ha) was 0.0 and the “Herbicidal rating CYPSE” value ([13]; rate 0.1250 kg/ha) was 0.0. The “Herbicidal rating CYPSE” value ([13]; rate 0.2500 kg/ha) was 6.0, the “Herbicidal rating SAGPY” value ([14]; rate 0.0313 kg/ha) was 0.0 and the “Herbicidal rating SAGPY” value ([14]; rate 0.0625 kg/ha) was 0.0. The “Herbicidal rating SAGPY” value ([14]; rate 0.1250 kg/ha) was 0.0 and the “Herbicidal rating SAGPY” value ([14]; rate 0.2500 kg/ha) was 0.0.
